IC50 data for 26 molecules are collected here from US9796706B2, “Inhibitors of Jun N-terminal kinase” (IMAGO PHARMACEUTICALS, INC., priority 2009, dated 2017).

Holding throughout (format): biochemical
Common to all, as to settings: procedures of Example 14 (TR-FRET)
In general terms: TR-FRET usually uses a lanthanide donor and a delayed reading to cut background.

The target of one assay is JNK2 (Homo sapiens (Human), UniProt P45984). The experiment in a line: JNK2 TR-FRET kinase assay (Example 14). The method, boiled down:
(§1)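 Two TR-FRET formats were used for each JNK isoform. In the direct one, preactivated aJNK phosphorylated EPIW-1 at about 1 mM final ATP (RT, 15 min). Both were EDTA-quenched and read by HTRF.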

Another assay concerns the target JNK1 (Homo sapiens (Human), UniProt P45983). In words: JNK1 TR-FRET kinase assay (Example 14). In short, it runs like this: as §1
Another assay deals with JNK3 (Homo sapiens (Human), UniProt P53779). In words: JNK3 TR-FRET kinase assay (Example 14). The method, boiled down:
as §1

Chain of JNK3 (P53779 whole entry, species assumed): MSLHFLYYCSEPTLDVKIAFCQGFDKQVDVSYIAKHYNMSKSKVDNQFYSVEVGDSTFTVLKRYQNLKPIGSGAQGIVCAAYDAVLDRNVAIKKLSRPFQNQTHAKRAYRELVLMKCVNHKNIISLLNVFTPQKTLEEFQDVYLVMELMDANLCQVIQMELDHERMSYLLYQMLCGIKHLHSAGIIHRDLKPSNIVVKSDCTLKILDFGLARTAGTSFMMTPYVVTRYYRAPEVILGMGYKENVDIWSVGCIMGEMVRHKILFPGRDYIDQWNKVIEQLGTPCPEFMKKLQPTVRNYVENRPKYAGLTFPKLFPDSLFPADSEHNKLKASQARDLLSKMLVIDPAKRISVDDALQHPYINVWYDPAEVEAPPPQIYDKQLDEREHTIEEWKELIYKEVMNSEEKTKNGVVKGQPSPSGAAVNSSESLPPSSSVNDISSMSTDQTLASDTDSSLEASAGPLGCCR
Chain of JNK2 (P45984 whole entry, species assumed, canonical isoform): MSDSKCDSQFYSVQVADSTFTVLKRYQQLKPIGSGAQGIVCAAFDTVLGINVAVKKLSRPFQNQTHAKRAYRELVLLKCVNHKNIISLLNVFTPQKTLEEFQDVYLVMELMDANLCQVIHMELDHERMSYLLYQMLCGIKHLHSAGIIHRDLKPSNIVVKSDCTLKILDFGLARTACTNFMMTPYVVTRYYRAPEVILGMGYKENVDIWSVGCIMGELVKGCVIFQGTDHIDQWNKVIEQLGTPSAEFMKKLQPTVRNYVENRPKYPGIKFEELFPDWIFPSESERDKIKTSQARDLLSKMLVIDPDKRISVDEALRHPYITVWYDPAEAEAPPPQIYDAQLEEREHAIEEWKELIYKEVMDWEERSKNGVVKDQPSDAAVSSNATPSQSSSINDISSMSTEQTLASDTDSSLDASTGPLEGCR
Chain of JNK1 (P45983 other isoform, or with tags, fused parts or gaps isoform P45983-2, species assumed): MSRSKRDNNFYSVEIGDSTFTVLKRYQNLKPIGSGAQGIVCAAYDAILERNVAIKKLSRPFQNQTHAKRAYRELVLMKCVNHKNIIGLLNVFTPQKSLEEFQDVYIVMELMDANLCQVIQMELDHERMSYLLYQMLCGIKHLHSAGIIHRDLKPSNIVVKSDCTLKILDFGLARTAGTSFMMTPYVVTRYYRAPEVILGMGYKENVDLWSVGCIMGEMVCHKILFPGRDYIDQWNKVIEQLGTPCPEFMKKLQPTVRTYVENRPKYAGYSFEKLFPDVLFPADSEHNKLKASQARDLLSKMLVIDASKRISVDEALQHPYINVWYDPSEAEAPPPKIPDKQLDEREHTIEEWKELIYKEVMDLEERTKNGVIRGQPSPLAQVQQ

The term IC50 denotes the concentration that gives 50% inhibition. The low end stands for inhibition by little substance, the high end for a need for much substance. As to `CN1CCN(CCCn2cnc(-c3c(Cl)csc3NC(=O)Cn3c(=O)ccc4cc(C(F)(F)F)ccc43)n2)CC1` [N-(4-chloro-3-(1-(3-(4-methylpiperazin-1-yl)propyl)-1H-1,2,4-triazol-3-yl)thiophen-2-yl)-2-(2-oxo-6-(trifluoromethyl)quinolin-1(2H)-yl)acetamide], the IC50 was 0.1 to 10 µM on JNK2, under 0.1 µM at JNK1 and under 0.1 µM on JNK3.
With `CN(C)CCCn1cnc(-c2c(Cl)csc2NC(=O)Cn2c(=O)ccc3cc(C(F)(F)F)ccc32)n1` [N-(4-chloro-3-(1-(3-(dimethylamino)propyl)-1H-1,2,4-triazol-3-yl)thiophen-2-yl)-2-(2-oxo-6-(trifluoromethyl)quinolin-1(2H)-yl)acetamide], the IC50 on JNK2, on JNK1 and on JNK3 was under 0.1 µM each time.
Take `O=C(Cn1c(=O)ccc2cc(C(F)(F)F)ccc21)Nc1scc(Cl)c1-c1ncn(CCCN2CCCC2)n1` [N-(4-chloro-3-(1-(3-(pyrrolidin-1-yl)propyl)-1H-1,2,4-triazol-3-yl)thiophen-2-yl)-2-(2-oxo-6-(trifluoromethyl)quinolin-1(2H)-yl)acetamide]: the IC50 at JNK2, on JNK1 and against JNK3 was under 0.1 µM each time.
As to `O=C(Cn1c(=O)ccc2cc(C(F)(F)F)ccc21)Nc1scc(Cl)c1-c1ncn(CCCN2CCOCC2)n1` [N-(4-chloro-3-(1-(3-morpholinopropyl)-1H-1,2,4-triazol-3-yl)thiophen-2-yl)-2-(2-oxo-6-(trifluoromethyl)quinolin-1(2H)-yl)acetamide], the IC50 against JNK2, at JNK1 and at JNK3 was under 0.1 µM throughout.
Regarding `Cn1cnc(-c2c(Cl)csc2NC(=O)CN2C(=O)CCc3ncccc32)n1` [N-(4-chloro-3-(1-methyl-1H-1,2,4-triazol-3-yl)thiophen-2-yl)-2-(2-oxo-3,4-dihydro-1,5-naphthyridin-1(2H)-yl)acetamide], the IC50 at JNK2, on JNK1 and on JNK3 was under 0.1 µM in each case.
As for `Cn1cnc(-c2c(Cl)csc2NC(=O)Cn2c(=O)ccc3nc(C(F)(F)F)ccc32)n1` [N-(4-chloro-3-(1-methyl-1H-1,2,4-triazol-3-yl)thiophen-2-yl)-2-(2-oxo-6-(trifluoromethyl)-1,5-naphthyridin-1(2H)-yl)acetamide], the IC50 at JNK2, at JNK1 and against JNK3 was under 0.1 µM in each case.
Turning to `Cn1cnc(-c2c(Cl)csc2NC(=O)Cn2c(=O)ccc3cnc(C(F)(F)F)cc32)n1` [N-(4-chloro-3-(1-methyl-1H-1,2,4-triazol-3-yl)thiophen-2-yl)-2-(2-oxo-7-(trifluoromethyl)-1,6-naphthyridin-1(2H)-yl)acetamide], the 50% inhibitory concentration (IC50) against JNK2, at JNK1 and at JNK3 was under 0.1 µM in each case.
For `Cn1cnc(-c2c(Cl)csc2NC(=O)Cn2c(=O)ccn3nc(C(F)(F)F)cc23)n1` [N-(4-chloro-3-(1-methyl-1H-1,2,4-triazol-3-yl)thiophen-2-yl)-2-(5-oxo-2-(trifluoromethyl)pyrazolo[1,5-a]pyrimidin-4(5H)-yl)acetamide], the IC50 against JNK2, against JNK1 and against JNK3 was under 0.1 µM throughout.
`Cn1cnc(-c2c(Cl)csc2NC(=O)Cn2c(=O)ccn3nccc23)n1` [N-(4-chloro-3-(1-methyl-1H-1,2,4-triazol-3-yl)thiophen-2-yl)-2-(5-oxopyrazolo[1,5-a]pyrimidin-4(5H)-yl)acetamide]: the 50% inhibitory concentration (IC50) at JNK2, at JNK1 and on JNK3 was under 0.1 µM throughout.
In the case of `O=C(CN1C(=O)CCc2ncccc21)Nc1scc(Cl)c1-c1nc[nH]n1` [N-(4-chloro-3-(1H-1,2,4-triazol-3-yl)thiophen-2-yl)-2-(2-oxo-3,4-dihydro-1,5-naphthyridin-1(2H)-yl)acetamide], the IC50 against JNK2, against JNK1 and on JNK3 was under 0.1 µM in each case.
With `O=C(Cn1c(=O)ccc2cnc(C(F)(F)F)cc21)Nc1scc(Cl)c1-c1nc[nH]n1` [N-(4-chloro-3-(1H-1,2,4-triazol-3-yl)thiophen-2-yl)-2-(2-oxo-7-(trifluoromethyl)-1,6-naphthyridin-1(2H)-yl)acetamide], the IC50 on JNK2, against JNK1 and against JNK3 was under 0.1 µM throughout.
For the molecule `N#Cc1ccc2c(ccc(=O)n2CC(=O)Nc2scc(Cl)c2-c2nc[nH]n2)c1` [N-(4-chloro-3-(1H-1,2,4-triazol-3-yl)thiophen-2-yl)-2-(6-cyano-2-oxoquinolin-1(2H)-yl)acetamide], the IC50 at JNK2, on JNK1 and at JNK3 was under 0.1 µM in each case.
Take `O=C(CN1C(=O)CCc2ccccc21)Nc1scc(Cl)c1-c1ncn[nH]1` [N-(4-chloro-3-(1H-1,2,4-triazol-5-yl)thiophen-2-yl)-2-(2-oxo-3,4-dihydroquinolin-1(2H)-yl)acetamide]: the IC50 against JNK2, at JNK1 and against JNK3 was under 0.1 µM in each case.
Consider `O=C(Cn1c(=O)ccc2nc(C(F)(F)F)ccc21)Nc1scc(Cl)c1-c1ncn[nH]1` [N-(4-chloro-3-(1H-1,2,4-triazol-5-yl)thiophen-2-yl)-2-(2-oxo-6-(trifluoromethyl)-1,5-naphthyridin-1(2H)-yl)acetamide], for which the IC50 at JNK2, on JNK1 and against JNK3 was under 0.1 µM each time.
Regarding `O=C(Cn1c(=O)ccc2cc(C(F)(F)F)ccc21)Nc1scc(Cl)c1-c1ncn[nH]1` [N-(4-chloro-3-(1H-1,2,4-triazol-5-yl)thiophen-2-yl)-2-(2-oxo-6-(trifluoromethyl)quinolin-1(2H)-yl)acetamide], the IC50 on JNK2, at JNK1 and against JNK3 was under 0.1 µM in each case.
As to `O=C(Cn1c(=O)ccn2nc(C(F)(F)F)cc12)Nc1scc(Cl)c1-c1ncn[nH]1` [N-(4-chloro-3-(1H-1,2,4-triazol-5-yl)thiophen-2-yl)-2-(5-oxo-2-(trifluoromethyl)pyrazolo[1,5-a]pyrimidin-4(5H)-yl)acetamide], the IC50 at JNK2, on JNK1 and against JNK3 was under 0.1 µM throughout.
For the molecule `O=C(Cn1c(=O)ccn2nccc12)Nc1scc(Cl)c1-c1ncn[nH]1` [N-(4-chloro-3-(1H-1,2,4-triazol-5-yl)thiophen-2-yl)-2-(5-oxopyrazolo[1,5-a]pyrimidin-4(5H)-yl)acetamide], the IC50 on JNK2, on JNK1 and against JNK3 was under 0.1 µM each time.
For `O=C(Cc1ccc(C(F)(F)F)c2ncccc12)Nc1scc(Cl)c1-c1ncn[nH]1` [N-(4-chloro-3-(1H-1,2,4-triazol-5-yl)thiophen-2-yl)-2-(8-(trifluoromethyl)quinolin-5-yl)acetamide], the IC50 was 0.1 to 10 µM at JNK2, under 0.1 µM against JNK1 and 0.1 to 10 µM at JNK3.
With `O=C(Cc1cccc2ncccc12)Nc1scc(Cl)c1-c1ncn[nH]1` [N-(4-chloro-3-(1H-1,2,4-triazol-5-yl)thiophen-2-yl)-2-(quinolin-5-yl)acetamide], the IC50 on JNK2, on JNK1 and against JNK3 was under 0.1 µM each time.
Consider `CCc1n[nH]c(-c2c(Cl)csc2NC(=O)CN2C(=O)CCc3ncccc32)n1` [N-(4-chloro-3-(3-ethyl-1H-1,2,4-triazol-5-yl)thiophen-2-yl)-2-(2-oxo-3,4-dihydro-1,5-naphthyridin-1(2H)-yl)acetamide], for which the IC50 is 0.1 to 10 µM at JNK2, under 0.1 µM on JNK1 and under 0.1 µM on JNK3.
Take `CC(C)c1n[nH]c(-c2c(Cl)csc2NC(=O)CN2C(=O)CCc3ncccc32)n1` [N-(4-chloro-3-(3-isopropyl-1H-1,2,4-triazol-5-yl)thiophen-2-yl)-2-(2-oxo-3,4-dihydro-1,5-naphthyridin-1(2H)-yl)acetamide]: the IC50 against JNK2 was 0.1 to 10 µM; at JNK1 it was under 0.1 µM; at JNK3, 0.1 to 10 µM.
As to `Cc1n[nH]c(-c2c(Cl)csc2NC(=O)CN2C(=O)CCc3ncccc32)n1` [N-(4-chloro-3-(3-methyl-1H-1,2,4-triazol-5-yl)thiophen-2-yl)-2-(2-oxo-3,4-dihydro-1,5-naphthyridin-1(2H)-yl)acetamide], the IC50 against JNK2, against JNK1 and at JNK3 was under 0.1 µM throughout.
As to `O=C(CN1C(=O)CCc2ncccc21)Nc1scc(Cl)c1-c1nccs1` [N-(4-chloro-3-(thiazol-2-yl)thiophen-2-yl)-2-(2-oxo-3,4-dihydro-1,5-naphthyridin-1(2H)-yl)acetamide], the IC50 against JNK2, on JNK1 and against JNK3 was under 0.1 µM in each case.
On to `Cn1cnc(-c2c(C#N)csc2NC(=O)CN2C(=O)CCc3ncccc32)n1` [N-(4-cyano-3-(1-methyl-1H-1,2,4-triazol-3-yl)thiophen-2-yl)-2-(2-oxo-3,4-dihydro-1,5-naphthyridin-1(2H)-yl)acetamide], for which the IC50 against JNK2, against JNK1 and against JNK3 was under 0.1 µM in each case.
As to `Cn1cnc(-c2c(C#N)csc2NC(=O)Cc2cccc3ncccc23)n1` [N-(4-cyano-3-(1-methyl-1H-1,2,4-triazol-3-yl)thiophen-2-yl)-2-(quinolin-5-yl)acetamide], the IC50 against JNK2, against JNK1 and against JNK3 was under 0.1 µM throughout.
On to `N#Cc1csc(NC(=O)Cn2c(=O)ccc3cc(C(F)(F)F)ccc32)c1-n1ccnn1` [N-(4-cyano-3-(1H-1,2,3-triazol-1-yl)thiophen-2-yl)-2-(2-oxo-6-(trifluoromethyl)quinolin-1(2H)-yl)acetamide], for which the IC50 at JNK2, against JNK1 and at JNK3 was 0.1 to 10 µM in each case.
